Reference: patent publication US20240335385A1, “IONIZABLE AMINE LIPIDS AND LIPID NANOPARTICLES” (Beam Therapeutics Inc., priority 2021, published 2024)

Columns and labels:
[1] = RNA encapsulation efficiency of LNPs by Ribogreen assay; assay type: physicochemical; conditions: LNP of 47.5% Ionizable Lipid:40% cholesterol:2.5% PEG-2000 DMG:10% DPSC, N/P ratio 4-8
Method: (§1) LNPs were prepared with 47.5% Ionizable Lipid (e.g., a compound provided herein):40% cholesterol:2.5% PEG-2000 DMG:10% DPSC and an N/P ratio range of 4-8. LNPs were formed by microfluidic mixing of the lipid and NA solutions using a Precision Nanosystems NanoAssemblr Spark or Benchtop series Instruments, according to the manufacturer's protocol. A ratio of aqueous to organic solvent of approximately 2:1 or 3:1 was maintained during mixing using differential flow rates. After mixing, LNPs were collected, diluted in phosphate buffer saline (PBS) or Tris-buffered saline (TBS) (approximately 1:1 v/v). Further buffer exchange was conducted using dialysis in PBS or TBS at 4° C. for 4 to 24 hours against a 20 kDa filter. After this initial dialysis, each individual LNP preparation was characterized via dynamic light scattering (DLS) to measure the size (e.g., diameter) and polydispersity. LNPs falling within specific diameter and polydispersity ranges were pooled, and further dialyzed against PBS or TBS at 4° C. for 1 to 4 hours against a 100 kDa dialysis cassette. After the second dialysis, LNPs were sterile filtered using 0.22 μm filter and stored at 4° C. for further use.
RNA concentration and encapsulation efficiency were determined by Ribogreen assay (BioTek Synergy LX plate reader).

[2] = LNP hydrodynamic diameter and polydispersity index by dynamic light scattering (DLS); assay type: physicochemical; conditions: LNP of 47.5% Ionizable Lipid:40% cholesterol:2.5% PEG-2000 DMG:10% DPSC, N/P ratio 4-8
Method: as §1
LNP hydrodynamic diameter and polydispersity index (PDI) were measured using high throughput dynamic light scattering (DLS) (Stunner, Unchained Labs). LNPs were diluted 1×TBS or PBS to an appropriate concentration and analyzed.

ALAS1 target site = test: Base editing in liver by LNP carrying adenine base editor mRNA and sgRNA, targeted deep sequencing; assay type: in vivo; conditions: Balb/C mice, tail vein, 0.15 mg/kg total RNA (ABE mRNA:sgRNA 1:1), four to six days post-dose
Method: Exemplary LNP preparations were selected to determine each preparation's ability to perform base editing in a Balb/C mouse model as described herein.
Lipid nanoparticle components were dissolved in 100% ethanol at specified lipid component molar ratios. mRNA encoding an adenine base editor and a chemically-modified sgRNA was dissolved at a mass ratio of 1:1 in 50 mM citrate, pH 4.0, resulting in a concentration of NA cargo of approximately 0.1 mg/mL.
LNP preparations were formulated with molar ratios of 47.5% Ionizable Lipid:40% Cholesterol:2.5% PEG2000-DMG:10% DSPC total lipid to NA mass ratio of 6 to 12. […]
A 3:1 ratio of aqueous to organic solvent was maintained during mixing using differential flow rates. […] After this initial dialysis, each individual LNP preparation was characterized via dynamic light scattering (DLS) to measure size and polydispersity. pKa of a subpopulation of LNP preparations was measured via TNS assay. […]
Age-matched mice were also used to administer vehicle (1×TBS) via tail vein injection as a control. […] Base editing is determined by performing targeted deep sequencing analysis at the ALAS1 target site using extracted genomic DNA. […] Library size and concentration was confirmed by Fragment Analyzer (Agilent) and analyzed for […] using an Illumina HiSeq.

lung = test: LNP biodistribution screen, barcode fold above input (FAI) in lung; assay type: in vivo; conditions: mice, tissues 4 hours post-dose
Method: (§2) Male and female mice aged approximately 8-12 weeks were used for studies described by the present Example. Each mouse was temporarily restrained and pooled LNP was administered IV via tail vein injection in up to five animals per experiment. Age-matched mice was also used to administer vehicle (1×TBS) via tail vein injection in up to three animals per experiment. Additional routes of administration can also be conducted including intracerebral ventricular (ICV), intracisterna manga (ICM), intrathecal (IT), intramuscular (IM), nebulization, intranasal (IN), subcutaneous (SC), intraarticular, and intradermal (ID). At 4 hours post-dose, tissues including liver, spleen, bone marrow, testes, gastrocnemius, quadricep, lung, heart, kidney, and pancreas may be collected for analysis.
(§3) Liver, kidney, lung, and muscle (e.g. skeletal and cardiac) tissues may be mechanically, and then enzymatically digested using a mixture of proteinases, then passed through a 70 μm filter to generate single cell suspensions. Spleen tissues were mechanically digested to generate single cell suspensions. Tissues were treated with ACK buffer to lyse red blood cells, and then stained with fluorescently-labeled antibodies for flow cytometry and fluorescence-activated cell sorting (FACS). Commercially available antibodies were used in the present example. Using a BD FACSMelody (Becton Dickinson), samples were acquired via flow cytometry to generate gates prior to sorting. In general, the gating structure was size→singlet cells→live cells→cells of interest. T cells were defined as CD45+CD3+, monocytes are defined as CD45+CD11b+, and B cells are defined as CD45+CD19+. Endothelial cells were defined as CD31+, monocytes and Kupffer cells as CD45+CD11b+ and hepatocytes and myocytes were defined as CD31−/CD45− in the liver and muscle, respectively. Tissues from vehicle-dosed mice were used to set the gates for sorting.
(§4) RNA from tissues were extracted using the Reliaprep RNA extraction kit, and libraries were prepared using the RNAseq kit, and sequenced on either a MiSeq or NextSeq500.
(§5) To screen for preferential LNP delivery to a target tissues, the relative abundance of each barcode in one or more target tissues was measured and compared to the relative abundance of each barcode to its corresponding relative input abundance to determine fold above input (FAI) for each barcode. If the FAI of a barcode in a target tissue is above a threshold or above the FAI of a different LNP in the same tissue, the LNP can be identified as preferentially delivering to the target tissue.
(§6) The FAI is the normalized relative abundance of a barcode in a selected sample as compared to its frequency in the input. The FAI of a barcode indicates how a LNP's abundance changes relative to the rest of the LNP pool. The FAI value of the barcode was calculated by normalizing the relative abundance in the barcode sequence counts in the isolated samples to its relative abundance in the administration input. […] The FAI then indicates the performance of an LNP relative to the input LNP composition.
(§7) Each table describes data obtained from one screening experiment.

spleen = test: LNP biodistribution screen, barcode fold above input (FAI) in spleen; assay type: in vivo; conditions: mice, tissues 4 hours post-dose
Method: as §2, §3, §4, §5, §6, §7

liver = test: LNP biodistribution screen, barcode fold above input (FAI) in liver; assay type: in vivo; conditions: mice, tissues 4 hours post-dose
Method: as §2
Liver, kidney, lung, and muscle (e.g. skeletal and cardiac) tissues may be mechanically, and then enzymatically digested using a mixture of proteinases, then passed through a 70 μm filter to generate single cell suspensions. Spleen tissues were mechanically digested to generate single cell suspensions. Tissues were treated with ACK buffer to lyse red blood cells, and then stained with fluorescently-labeled antibodies for flow cytometry and fluorescence-activated cell sorting (FACS). Commercially available antibodies were used in the present example. Using a BD FACSMelody (Becton Dickinson), samples were acquired via flow cytometry to generate gates prior to sorting. […]
To screen for preferential LNP delivery to a target tissues, the relative abundance of each barcode in one or more target tissues was measured and compared to the relative abundance of each barcode to its corresponding relative input abundance to determine fold above input (FAI) for each barcode. […]
The FAI is the normalized relative abundance of a barcode in a selected sample as compared to its frequency in the input. […] The FAI value of the barcode was calculated by normalizing the relative abundance in the barcode sequence counts in the isolated samples to its relative abundance in the administration input. […]

[3] = screening experiment of Table 3, pooled LNP IV tail vein
[4] = screening experiment of Table 5, pooled LNP IV tail vein
[5] = screening experiment of Table 4, pooled LNP IV tail vein

| Compound | Mean Encapsulation Efficiency (%) [1] [%] | Mean Diameter (nm) [2] [nm] | Mean PDI [2] | base editing observed in liver (ALAS1 target site) [%] | FAI (Lung) (lung; [3]) | FAI (Lung) (lung; [4]) | FAI (Spleen) (spleen; [3]) | FAI (Spleen) (spleen; [4]) | FAI (Liver) (liver; [3]) | FAI (Lung) (lung; [5]) | FAI (Spleen) (spleen; [5]) | FAI (Liver) (liver; [5]) |
| --- | --- | --- | --- | --- | --- | --- | --- | --- | --- | --- | --- | --- |
| CC/C=C\CCCCOC(CCC(=O)OCCCCC(CCCCOC(=O)CCCCCCC/C=C\C/C=C\CCCCC)OC(=O)OCC1CCCN(CC)C1)OCCCC/C=C\CC (stereo not drawn) [Example 7-41, 9-((4,4-bis(((Z)-oct-5-en-1-yl)oxy)butanoyl)oxy)-5-((((1-ethylpiperidin-3-yl)methoxy)carbonyl)oxy)nonyl (9Z,12Z)-octadeca-9,12-dienoate] | 84.3 | 80.3 | 0.11 | 1.7 |  |  |  |  |  |  |  |  |
| 5-((4,4-bis(((Z)-oct-5-en-1-yl)oxy)butanoyl)oxy)-3-((4-(pyrrolidin-1-yl)butanoyl)oxy)pentyl (9Z,12Z)-octadeca-9,12-dienoate [Example 7-5] | 86.8 | 93.1 | 0.13 |  | 1.30 | 0.83 | 1.29 | 1.33 | 2.28 |  |  |  |
| CCCCC/C=C\C/C=C\CCCCCCCC(=O)OCCC(CCOC(=O)CCC(OCCCCCCCC)OCCCCCCCC)OC(=O)OCCCN(CC)CC (stereo not drawn) [Example 7-12, 5-((4,4-bis(octyloxy)butanoyl)oxy)-3-(((3-(diethylamino)propoxy)carbonyl)oxy)pentyl (9Z,12Z)-octadeca-9,12-dienoate] | 86.5 | 85.0 | 0.16 |  |  |  |  |  |  |  |  |  |
| CC/C=C\CCCCOC(CCC(=O)OCCCC(CCCOC(=O)CCCCCCC/C=C\C/C=C\CCCCC)OC(=O)OCC1CCCN(CC)C1)OCCCC/C=C\CC (stereo not drawn) [Example 7-21, 7-((4,4-bis(((Z)-oct-5-en-1-yl)oxy)butanoyl)oxy)-4-((((1-ethylpiperidin-3-yl)methoxy)carbonyl)oxy)heptyl (9Z,12Z)-octadeca-9,12-dienoate] | 86.4 | 90.0 | 0.11 | 34.1 |  |  |  |  |  |  |  |  |
| CC/C=C\CCCCOC(CCC(=O)OCCC(CCOC(=O)CCCCCCC/C=C\C/C=C\CCCCC)OC(=O)OCCCN(C)C)OCCCC/C=C\CC (stereo not drawn) [Example 7-4, 5-((4,4-bis(((Z)-oct-5-en-1-yl)oxy)butanoyl)oxy)-3-(((3-(dimethylamino)propoxy)carbonyl)oxy)pentyl (9Z,12Z)-octadeca-9,12-dienoate] | 86.3 | 88.8 | 0.13 |  |  |  |  |  |  |  |  |  |
| CC/C=C\CCCCOC(CCC(=O)OCCC(CCOC(=O)CCCCCCC/C=C\C/C=C\CCCCC)OC(=O)OCCCN(C)CC)OCCCC/C=C\CC (stereo not drawn) [Example 7-3, 5-((4,4-bis(((Z)-oct-5-en-1-yl)oxy)butanoyl)oxy)-3-(((3-(ethyl(methyl)amino)propoxy)carbonyl)oxy)pentyl (9Z,12Z)-octadeca-9,12-dienoate] | 86.7 | 91.0 | 0.13 |  |  |  |  |  |  |  |  |  |
| CC/C=C\CCCCOC(CCC(=O)OCCCCC(CCCCOC(=O)CCC(OCCCC/C=C\CC)OCCCC/C=C\CC)OC(=O)OCC1CCCN(CC)C1)OCCCC/C=C\CC (stereo not drawn) [Example 7-34, 5-((((1-ethylpiperidin-3-yl)methoxy)carbonyl)oxy)nonane-1,9-diyl bis(4,4-bis(((Z)-oct-5-en-1-yl)oxy)butanoate)] | 85.1 | 94.4 | 0.12 |  |  |  |  |  |  |  |  |  |
| CCCCC/C=C\C/C=C\CCCCCCCC(=O)OCCC(CCOC(=O)CCC(OCCCCCCCC)OCCCCCCCC)OC(=O)OCC1CCCN(CC)C1 (stereo not drawn) [Example 7-11, 5-((4,4-bis(octyloxy)butanoyl)oxy)-3-((((1-ethylpiperidin-3-yl)methoxy)carbonyl)oxy)pentyl (9Z,12Z)-octadeca-9,12-dienoate] | 86.3 | 76.5 | 0.13 |  |  |  |  |  |  |  |  |  |
| CCCCC/C=C\C/C=C\CCCCCCCCC(CCCCCCCC/C=C\C/C=C\CCCCC)OC(=O)CCCN(C)C [MC3, (6Z,9Z,28Z,31Z)-heptatriaconta-6,9,28,31-tetraen-19-yl 4-(dimethylamino) butanoate] |  |  |  |  | 1.09 | 0.50 | 1.32 | 0.39 | 0.80 | 0.65 | 0.45 | 0.31 |
